Reference: publication PMC5608804, “Stepwise Evolution Improves Identification of Diverse Peptides Binding to a Protein Target” (Scientific Reports, 2017)

Target: T1, streptavidin (Streptomyces avidinii, UniProt P22629)
T1 construct: purchased GE Healthcare (Little Chalfont, UK)
Experiment: Cy5-streptavidin binding on HotSpot discovery array, 5-mer L-peptide library
Conditions: for S/B: signal to background ratio
Source text: To identify hotspot sequences that bind to streptavidin (SA), we bound Cy5-SA to an array library of 2,476,099 5-mer L-peptides synthesized with 19 of 20 natural amino acids (excluding cysteine). The fluorescence signal intensity was aggregated across three independently synthesized arrays; then the 2,047 peptides with a signal-to-background ratio (S/B) >4 were selected. The data was further filtered to select 1,100 peptides for which signal intensities were highly correlated on all 3 arrays (the percentage of mean deviation to mean was <10%, see Supplementary dataset Table 2A). Most selected sequences (1,019 of 1,100) contained HP, PQ, or PM sequences: their presence would be expected in the well-known HPQ and HPM streptavidin binders[13]–[18].
The comprehensive peptide library included 2,476,099 5-mer peptides synthesized in a single copy with 19 of 20 L- or D-amino acids (excluding cysteine). Libraries were flanked on both N- and C-termini by linkers of 1 or 3 amino acids using a 3:1 glycine-serine mixture.
Cy5™-streptavidin (Cy5-SA) was purchased from GE Healthcare (Little Chalfont, UK). Freshly deprotected arrays were used in each experiment. Streptavidin binding to all arrays was performed with 0.5 µg/ml Cy5-SA either in binding buffer containing 10 mM Tris-HCl (pH 7.4), 1% alkali-soluble casein (EMD Millipore), 0.05% Tween-20 or in 10 mM Tris-HCl (pH 7.4), 4% BSA (Roche, Basel, Switzerland), 0.05% Tween-20 in a 30 mL PAP Jar container (Evergreen Scientific, Vernon, CA) overnight at 4° C. After incubation, arrays were washed in 20 mM Tris-HCl (pH 7.8), 0.2 M NaCl, 1% SDS or 1X TBS (pH 7.4) for 30 sec followed by a 1 min wash in water, and then dried by spinning in a microcentrifuge equipped with an array holder.
Cy5 fluorescence intensity of the arrays was measured with an MS200 scanner (Roche NimbleGen, Madison, WI) at resolution 2 µm, wavelength 635 nm, gain 25%, and laser intensity 100%. Cy5 signal intensities were extracted using Image Extraction Software (Roche NimbleGen). Data pre-processing, normalization, and statistical tests were performed using the language R. Data visualization and analysis was performed with the Spotfire 6.5.0 (Tibco, Boston, MA) software platform. Distance analysis and principle component analysis of distance matrices were performed with the R package PEPLIB[19].

[1] = 5-mer L-peptide library array, Cy5-streptavidin, from average of three arrays
[2] = 5-mer L-peptide library array, Cy5-streptavidin
[3] = 5-mer L-peptide library, from the average of three arrays
[4] = 5-mer L-peptide library array, Cy5-streptavidin, from the average of three arrays

T1 sequence (P22629 25-183): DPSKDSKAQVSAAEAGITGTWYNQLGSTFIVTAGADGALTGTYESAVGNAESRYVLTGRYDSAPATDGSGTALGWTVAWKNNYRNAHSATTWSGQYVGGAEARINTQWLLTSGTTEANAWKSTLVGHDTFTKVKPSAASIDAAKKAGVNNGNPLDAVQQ

## HPMFG
[1]
  S/B (signal to background ratio): 21.9

## HPMFH
[2]
  S/B: 6.8

## HPMFI
[3]
  S/B (signal to background ratio): 4.7

## HPMFL
[2]
  S/B: 5.4

## HPMFN
[1]
  S/B (signal to background ratio): 39.1

## HPMFR
[2]
  S/B: 5.2

## HPMFS
[1]
  S/B (signal to background ratio): 20.6

## HPMFV
[2]
  S/B: 7.5

## HPMFW
[2]
  S/B: 6.5

## HPMGG
[4]
  S/B (signal to background ratio): 60.6

## HPMGH
[2]
  S/B: 15.2

## HPMGI
[2]
  S/B: 7.9

## HPMGK
[2]
  S/B: 5.3

## HPMGL
[2]
  S/B: 9.0

## HPMGN
[1]
  S/B (signal to background ratio): 22.1

## HPMGQ
[1]
  S/B (signal to background ratio): 20.5

## HPMGT
[2]
  S/B: 12.0

## HPMGV
[2]
  S/B: 9.2

## HPMGW
[2]
  S/B: 18.2

## HPMHG
[2]
  S/B: 13.1

## HPMHM
[3]
  S/B (signal to background ratio): 4.4

## HPMHP
[2]
  S/B: 14.9

## HPMHW
[3]
  S/B (signal to background ratio): 4.9

## HPMKN
[2]
  S/B: 8.2

## HPMKP
[3]
  S/B (signal to background ratio): 4.6

## HPMMA
[2]
  S/B: 5.3

## HPMMF
[3]
  S/B (signal to background ratio): 5.1

## HPMMW
[2]
  S/B: 5.7

## HPMNA
[2]
  S/B: 17.1

## HPMNE
[2]
  S/B: 5.7

## HPMNH
[3]
  S/B (signal to background ratio): 4.4

## HPMNM
[2]
  S/B: 9.1

## HPMNR
[2]
  S/B: 5.6

## HPMNY
[3]
  S/B (signal to background ratio): 4.6

## HPMPD
[2]
  S/B: 5.4

## HPMPW
[2]
  S/B: 8.2

## HPMQA
[2]
  S/B: 6.4

## HPMQF
[3]
  S/B (signal to background ratio): 4.9

## HPMQG
[2]
  S/B: 16.2

## HPMQH
[3]
  S/B (signal to background ratio): 4.5

## HPMQN
[2]
  S/B: 8.8

## HPMQS
[3]
  S/B (signal to background ratio): 4.9

## HPMRA
[3]
  S/B (signal to background ratio): 4.8

## HPMRF
[3]
  S/B (signal to background ratio): 4.6

## HPMRG
[2]
  S/B: 9.3

## HPMRH
[3]
  S/B (signal to background ratio): 4.9

## HPMRN
[2]
  S/B: 8.8

## HPMRS
[2]
  S/B: 7.0

## HPMRT
[3]
  S/B (signal to background ratio): 4.3

## HPMRW
[2]
  S/B: 12.6

## HPMRY
[2]
  S/B: 5.8

## HPMSA
[2]
  S/B: 8.0

## HPMSG
[1]
  S/B (signal to background ratio): 45.4

## HPMSR
[3]
  S/B (signal to background ratio): 4.4

## HPMST
[3]
  S/B (signal to background ratio): 4.2

## HPMSY
[3]
  S/B (signal to background ratio): 4.8

## HPMTP
[2]
  S/B: 5.6

## HPMVA
[2]
  S/B: 12.1

## HPMVF
[2]
  S/B: 5.3

## HPMVS
[2]
  S/B: 8.8

## HPMYA
[2]
  S/B: 11.4

## HPMYF
[2]
  S/B: 12.1

## HPMYH
[2]
  S/B: 13.0

## HPMYM
[2]
  S/B: 8.3

## HPMYP
[2]
  S/B: 15.8

## HPMYQ
[2]
  S/B: 5.7

## HPMYR
[2]
  S/B: 5.9

## HPMYS
[2]
  S/B: 8.6

## HPMYY
[2]
  S/B: 8.3

## HPQAA
[1]
  S/B (signal to background ratio): 43.7

## HPQAF
[1]
  S/B (signal to background ratio): 40.6

## HPQAG
[1]
  S/B (signal to background ratio): 125.6

## HPQAI
[2]
  S/B: 10.7

## HPQAL
[2]
  S/B: 10.3

## HPQAM
[2]
  S/B: 18.6

## HPQAP
[4]
  S/B (signal to background ratio): 82.5

## HPQAV
[2]
  S/B: 17.8

## HPQDG
[2]
  S/B: 15.1

## HPQFA
[4]
  S/B (signal to background ratio): 113.5

## HPQFF
[4]
  S/B (signal to background ratio): 71.6

## HPQFG
[1]
  S/B (signal to background ratio): 141.0

## HPQFH
[4]
  S/B (signal to background ratio): 64.4

## HPQFK
[2]
  S/B: 17.7

## HPQFL
[1]
  S/B (signal to background ratio): 42.4

## HPQFN
[4]
  S/B (signal to background ratio): 113.3

## HPQFP
[1]
  S/B (signal to background ratio): 141.5

## HPQFQ
[4]
  S/B (signal to background ratio): 90.6

## HPQFR
[1]
  S/B (signal to background ratio): 23.8

## HPQFS
[1]
  S/B (signal to background ratio): 123.4

## HPQFT
[4]
  S/B (signal to background ratio): 92.5

## HPQFV
[4]
  S/B (signal to background ratio): 69.2

## HPQFW
[1]
  S/B (signal to background ratio): 53.0

## HPQFY
[4]
  S/B (signal to background ratio): 70.7

## HPQGA
[4]
  S/B (signal to background ratio): 92.1

## HPQGD
[4]
  S/B (signal to background ratio): 62.3

## HPQGE
[1]
  S/B (signal to background ratio): 40.1

## HPQGF
[4]
  S/B (signal to background ratio): 63.7

## HPQGG
[1]
  S/B (signal to background ratio): 131.5

## HPQGH
[4]
  S/B (signal to background ratio): 86.0

## HPQGK
[1]
  S/B (signal to background ratio): 29.8

## HPQGN
[4]
  S/B (signal to background ratio): 108.4

## HPQGP
[1]
  S/B (signal to background ratio): 162.1

## HPQGQ
[4]
  S/B (signal to background ratio): 73.5

## HPQGS
[4]
  S/B (signal to background ratio): 105.2

## HPQGT
[4]
  S/B (signal to background ratio): 67.0

## HPQGV
[1]
  S/B (signal to background ratio): 45.0

## HPQGW
[4]
  S/B (signal to background ratio): 60.3

## HPQGY
[1]
  S/B (signal to background ratio): 53.6

## HPQHF
[1]
  S/B (signal to background ratio): 18.9

## HPQHG
[1]
  S/B (signal to background ratio): 57.1

## HPQHL
[2]
  S/B: 9.2

## HPQHN
[1]
  S/B (signal to background ratio): 28.0

## HPQHS
[2]
  S/B: 18.1

## HPQHV
[2]
  S/B: 13.6

## HPQHY
[2]
  S/B: 11.4

## HPQIF
[2]
  S/B: 6.3

## HPQIG
[1]
  S/B (signal to background ratio): 31.0

## HPQIN
[2]
  S/B: 12.2

## HPQIP
[3]
  S/B (signal to background ratio): 4.0

## HPQIS
[2]
  S/B: 8.8

## HPQKF
[3]
  S/B (signal to background ratio): 4.8

## HPQKG
[2]
  S/B: 18.2

## HPQKN
[2]
  S/B: 7.8

## HPQKY
[2]
  S/B: 5.5

## HPQLG
[2]
  S/B: 9.1

## HPQLY
[3]
  S/B (signal to background ratio): 4.1

## HPQMG
[4]
  S/B (signal to background ratio): 59.2

## HPQMR
[2]
  S/B: 7.1

## HPQMS
[1]
  S/B (signal to background ratio): 20.7

## HPQMY
[2]
  S/B: 11.1

## HPQNA
[4]
  S/B (signal to background ratio): 108.8

## HPQND
[1]
  S/B (signal to background ratio): 53.5

## HPQNE
[1]
  S/B (signal to background ratio): 48.0

## HPQNF
[4]
  S/B (signal to background ratio): 94.0

## HPQNI
[1]
  S/B (signal to background ratio): 48.9

## HPQNK
[1]
  S/B (signal to background ratio): 28.4

## HPQNL
[1]
  S/B (signal to background ratio): 57.7

## HPQNN
[4]
  S/B (signal to background ratio): 112.8

## HPQNP
[4]
  S/B (signal to background ratio): 89.0

## HPQNQ
[4]
  S/B (signal to background ratio): 86.9

## HPQNR
[1]
  S/B (signal to background ratio): 50.5

## HPQNS
[4]
  S/B (signal to background ratio): 112.6

## HPQNT
[4]
  S/B (signal to background ratio): 67.6

## HPQNV
[4]
  S/B (signal to background ratio): 84.4

## HPQNW
[4]
  S/B (signal to background ratio): 93.4

## HPQNY
[4]
  S/B (signal to background ratio): 103.6

## HPQPD
[2]
  S/B: 6.3

## HPQPF
[2]
  S/B: 5.7

## HPQPG
[2]
  S/B: 5.6

## HPQPN
[2]
  S/B: 5.5

## HPQPP
[2]
  S/B: 6.0

## HPQPQ
[3]
  S/B (signal to background ratio): 4.4

## HPQPW
[3]
  S/B (signal to background ratio): 4.6

## HPQQD
[2]
  S/B: 7.4

## HPQQG
[1]
  S/B (signal to background ratio): 47.0
